#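 Cultured in 96-well plates, cells were exposed to test compound for 48 hours across five concentrations. TGI denotes the concentration required for complete inhibition of growth.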
# Tests used:
# Assay in all cases: inhibition of tumour cell growth, NCI panel, 48 h
# [1] = tested on: 786-0 renal
# [2] = tested on: A498 renal
# [3] = tested on: A549 NSCLC
# [4] = tested on: ACHN renal
# [5] = tested on: CAKI-1 renal
# [6] = tested on: CCRF-CEM leukemia
# [7] = tested on: COLO 205 colon
# [8] = tested on: DLD-1 colon
# [9] = tested on: DMS 114 small cell lung
# [10] = tested on: DMS 273 small cell lung
# [11] = tested on: EKVX NSCLC
# [12] = tested on: HCC-2998 colon
# [13] = tested on: HCT-116 colon
# [14] = tested on: HCT-15 colon
# [15] = tested on: HL-60(TB) leukemia
# [16] = tested on: HOP-18 NSCLC
# [17] = tested on: HOP-62 NSCLC
# [18] = tested on: HOP-92 NSCLC
# [19] = tested on: HT29 colon
# [20] = tested on: IGROV1 ovarian
# [21] = tested on: K-562 leukemia
# [22] = tested on: KM12 colon
# [23] = tested on: KM20L2 colon
# [24] = tested on: LOX IMVI melanoma
# [25] = tested on: LXFL 529 NSCLC
# [26] = tested on: M14 melanoma
# [27] = tested on: M19-MEL melanoma
# [28] = tested on: MALME-3M melanoma
# [29] = tested on: MOLT-4 leukemia
# [30] = tested on: NCI-H226 lung
# [31] = tested on: NCI-H23 lung
# [32] = tested on: NCI-H460 lung
# [33] = tested on: NCI-H522 lung
# [34] = tested on: OVCAR-3 ovarian
# [35] = tested on: OVCAR-4 ovarian
# [36] = tested on: OVCAR-5 ovarian
# [37] = tested on: OVCAR-8 ovarian
# [38] = tested on: RPMI-8226 leukemia
# [39] = tested on: RXF 393 renal
# [40] = tested on: RXF-631 renal
# [41] = tested on: SF-268 CNS
# [42] = tested on: SF-295 CNS
# [43] = tested on: SF-539 CNS
# [44] = tested on: SK-MEL-2 melanoma
# [45] = tested on: SK-MEL-28 melanoma
# [46] = tested on: SK-MEL-5 melanoma
# [47] = tested on: SK-OV-3 ovarian
# [48] = tested on: SN12C renal
# [49] = tested on: SNB-19 CNS
# [50] = tested on: SNB-75 CNS
# [51] = tested on: SNB-78 CNS
# [52] = tested on: SR leukemia
# [53] = tested on: SW-620 colon
# [54] = tested on: TK-10 renal
# [55] = tested on: U251 CNS
# [56] = tested on: UACC-257 melanoma
# [57] = tested on: UACC-62 melanoma
# [58] = tested on: UO-31 renal
# [59] = tested on: XF 498 CNS
structure (smiles),measurement,setting,value
[O-][n+]1c(-c2ccccc2)oc2ccccc21,TGI,[1],62.4 µM
same,TGI,[2],34.8 µM
same,TGI,[3],17.9 µM
same,TGI,[4],39.4 µM
same,TGI,[5],> 55.7 µM
same,TGI,[6],> 100 µM
same,TGI,[7],33.6 µM
same,TGI,[8],> 59.5 µM
same,TGI,[9],16.4 µM
same,TGI,[10],28 µM
same,TGI,[11],63 µM
same,TGI,[12],37.8 µM
same,TGI,[13],41.9 µM
same,TGI,[14],24.3 µM
same,TGI,[15],79.9 µM
same,TGI,[16],20.1 µM
same,TGI,[17],35.2 µM
same,TGI,[18],> 100 µM
same,TGI,[19],59.1 µM
same,TGI,[20],> 100 µM
same,TGI,[21],> 100 µM
same,TGI,[22],> 100 µM
same,TGI,[23],43.1 µM
same,TGI,[24],15.7 µM
same,TGI,[25],> 94.4 µM
same,TGI,[26],24.8 µM
same,TGI,[27],3.59 µM
same,TGI,[28],28.1 µM
same,TGI,[29],> 100 µM
same,TGI,[30],> 100 µM
same,TGI,[31],38.7 µM
same,TGI,[32],20.2 µM
same,TGI,[33],17.5 µM
same,TGI,[34],65.9 µM
same,TGI,[35],> 68 µM
same,TGI,[36],67.1 µM
same,TGI,[37],> 100 µM
same,TGI,[38],> 69.2 µM
same,TGI,[39],55.6 µM
same,TGI,[40],> 100 µM
same,TGI,[41],> 100 µM
same,TGI,[42],27.6 µM
same,TGI,[43],31.5 µM
same,TGI,[44],40.4 µM
same,TGI,[45],36.6 µM
same,TGI,[46],6.81 µM
same,TGI,[47],> 100 µM
same,TGI,[48],29 µM
same,TGI,[49],> 65.1 µM
same,TGI,[50],32.7 µM
same,TGI,[51],97.1 µM
same,TGI,[52],> 100 µM
same,TGI,[53],39.1 µM
same,TGI,[54],47.7 µM
same,TGI,[55],> 85.8 µM
same,TGI,[56],22.6 µM
same,TGI,[57],23.1 µM
same,TGI,[58],40.3 µM
same,TGI,[59],> 100 µM
CCOC(=O)[C@]12C3C=CC(C3)C1C(=O)C1OC12 (some centres undefined),TGI,[1],> 100 µM
same,TGI,[2],> 100 µM
same,TGI,[3],> 100 µM
same,TGI,[4],> 100 µM
same,TGI,[5],> 100 µM
same,TGI,[6],> 100 µM
same,TGI,[7],> 100 µM
same,TGI,[8],> 100 µM
same,TGI,[9],> 100 µM
same,TGI,[10],> 100 µM
same,TGI,[11],> 100 µM
same,TGI,[12],> 100 µM
same,TGI,[13],> 100 µM
same,TGI,[14],> 100 µM
same,TGI,[15],> 100 µM
same,TGI,[16],> 100 µM
same,TGI,[17],> 100 µM
same,TGI,[18],> 100 µM
same,TGI,[19],> 100 µM
same,TGI,[20],> 100 µM
same,TGI,[21],> 100 µM
same,TGI,[22],> 100 µM
same,TGI,[24],> 100 µM
same,TGI,[25],> 100 µM
same,TGI,[27],> 100 µM
same,TGI,[28],> 100 µM
same,TGI,[29],> 100 µM
same,TGI,[30],> 100 µM
same,TGI,[31],> 100 µM
same,TGI,[32],> 100 µM
same,TGI,[33],> 100 µM
same,TGI,[34],> 100 µM
same,TGI,[35],> 100 µM
same,TGI,[36],> 100 µM
same,TGI,[37],> 100 µM
same,TGI,[38],> 100 µM
same,TGI,[40],> 100 µM
same,TGI,[41],> 100 µM
same,TGI,[42],> 100 µM
same,TGI,[43],> 100 µM
same,TGI,[44],> 100 µM
same,TGI,[45],> 100 µM
same,TGI,[46],> 100 µM
same,TGI,[47],> 100 µM
same,TGI,[48],> 100 µM
same,TGI,[49],> 100 µM
same,TGI,[50],> 100 µM
same,TGI,[51],> 100 µM
same,TGI,[53],> 100 µM
same,TGI,[54],> 100 µM
same,TGI,[55],> 100 µM
same,TGI,[56],> 100 µM
same,TGI,[57],> 100 µM
same,TGI,[58],> 100 µM
same,TGI,[59],> 100 µM
